Source: patent US20230321101A1, “METHODS AND USES OF HALOFUGINONE” (The Regents of the University of California, priority 2020, published 2023)
Entries after “also recorded” stand apart in the source; their conditions may differ. Like-named read-outs stand apart in the source and are kept apart here.

Experiments:
Vero E6 cells = test: Cell number of Vero E6 cells treated for 24 h; type: cell-based, African green monkey; conditions: Vero E6, 24 h
Procedure: FIG. 32A and FIG. 32B. […] A-B, Measurement of authentic SARS-CoV-2 infection and cell number in Vero E6 cells treated with (A) halofuginone (HF) or (B) the 2R,3S-(+) enantiomer for 24 h. Data shown as mean±S.D.

SARS-CoV-2 = SARS-CoV-2 infected hamsters, oral halofuginone, lung pathology; type: in vivo; conditions: vs PBS
Excerpt: FIG. 37A-FIG. 37F: Oral dosing of halofuginone to hamsters infected with SARS-CoV-2 improved hamster lung pathology relative to a control group of hamsters (PBS).

[1] = test system: authentic SARS-COV-2 virus; test: SARS-CoV-2 infected golden hamsters, intraperitoneal halofuginone; type: in vivo; conditions: for viral titer (TCID50 from nasal washes): 200 μg/kg intraperitoneally daily
Procedure: FIG. 35A, FIG. 35B, and FIG. 35C.
Six golden hamsters were dosed at 200 μg/kg with halofuginone starting at day −1, infected at day 0 with authentic SARS-COV-2 virus, and every day for five more days they received 200 μg/kg of halofuginone (FIG. 35A). Dosing was done intraperitoneally. A control group (n=6) was administered PBS. On day 3, half of the animals (n=3) in each group was sacrificed, and at day 5 the remaining animals (n=3) were sacrificed. TCID50 values as a measure of SARS-CoV-2 infectivity were measured from nasal washes at day 3 and day 5; the values were determined by viral cytopathic effect.

[2] = test system: SARS-CoV-2 spike protein pseudotyped VSV; type: cell-based
[3] = test system: primary human bronchial epithelial cells; conditions: 10 nM and 100 nM
[4] = human, cited from earlier work
[5] = test system: recombinant SARS-CoV-2 spike RBD protein binding to Caco-2 cells
authentic SARS-CoV-2 = type: cell-based
[6] = test system: core HSPGs in Hep3B cells; test: HSPG core proteins by SDS-PAGE with mAb 3G10 in Hep3B cells; type: cell-based, human
hepcidin expression = test: Hepcidin expression in the mouse liver upon iron loading; type: in vivo; conditions: mice, 1 μg per mouse per day for 8 days, iron-rich diet (8.3 g/kg) for 7 days
Procedure: FIG. 10. […] Mice treated with Halofuginone for 8 days, 1 μg per mouse per day. Mice were either on normal iron-balanced chow (0.2 g/kg) or iron-rich diet (8.3 g/kg) for 7 days in conjunction with the treatment.

ZIKV (Zika virus) = test: ZIKV antiviral immunofluorescence assay in SH-SY5Y cells; type: cell-based; conditions: Zika virus, read-out: EC50 ZIKV
Procedure: Experimental Procedure. The antiviral activity of 8 dilutions of each compound was explored by adding the drug to the assay cells 2 h after infection with the different viruses. Virus and compounds were left on the cells for the entire duration of the experiment (28 h for Zika virus and 24 h for all other viruses). The cytotoxicity of the same range of concentrations of compounds was determined by LDH release assay in the same cell lines.
Cell plating. Cells were detached and counted following SOP-RA 003 and SOP-RA 004. Count was recorded in the Cell Count Logbook, Volume 1. For each virus four plates were seeded, two for the antiviral assay and two for the cytotoxicity assay. Cells were seeded in 100 μl/well of complete media at the following densities: • Huh7: 8,000 cells/well (Dengue) • SH-SY5Y: 10,000 cells/wells (Zika) • HeLa Tzmbl: 8,000 cells/well (HIV)
Compounds dilutions. The 22.1 mM stocks were further diluted to 1 mM in DMSO by adding 211 μl of DMSO to 10 μl of compound. Three serial dilutions were prepared in different media for different viruses/cells. For each dilution, drugs were prepared at twice the final concentration in 50 μl volume, because they are diluted to the final concentration by an equal volume of virus or media.
Infection. Cells were infected in 50 μl of supplemented media/well at the following multiplicity of infection (MOI): • DENV-2, MOI 1 • ZIKV, MOI 5 • HIV, MOI 0.5
After removing culture media from cells, 50 μl of virus dilution were added to all wells except Column 11 (uninfected control), where the same volume of supplemented media was added. […]
Infectivity readout. […] The primary antibodies were detected with an Alexa-488 conjugate secondary antibody (Life Technologies, A11001), and nuclei were stained with Hoechst. Images were acquired on a CellInsight CX5 high content platform (Thermo Scientific) using a 4× objective, and percentage infection calculated using CellInsight CX5 software (infected cells/total cells×100).
Determination of % Inhibition—IF assay. Normalized percentages of inhibition were calculated using the following formula: […]

clinical = conditions: human, in vivo, po

## O=C(CC1NCCCC1O)Cn1cnc2cc(Br)c(Cl)cc2c1=O (racemic) [halofuginone]
Vero E6 cells
  cell proliferation (cell number): inhibit SARS-CoV-2 infection and cell proliferation
SARS-CoV-2; oral 1 mg/kg
  lung fibrosis, blood clotting, and inflammation: reduced lung fibrosis, blood clotting, and inflammation
SARS-CoV-2; oral dosing
  extended lung pathology: significant improvement
  lung pathology severity: significant improvement
  lung weight: significant improvement
  macroscopic lung pathology: significant improvement
[1]; day 3 and day 5
  viral titer (TCID50 from nasal washes): significantly reduced viral titer by day 5 post infection
[1]; day 3 and day 5, listed as Halofuginone
  viral titer (TCID50 from nasal washes): potent anti-viral efficacy
[1]; 200 μg/kg intraperitoneally, day -1 to day 5
  body weight: no deleterious effect on body weight
[2]
  inhibition of pseudotyped VSV infection: about 30 fold
[3]
  cell viability: without affecting cell viability
[4]; phase I
  accumulation, exposure by day 15 of dosing: two- to three-fold higher exposure
  half-life: ~3 h
  oral bioavailability: orally bioavailable
[4]; single oral administration of 0.5 mg
  average Cmax: 0.54 ng/mL
[4]; single oral administration of 3.5 mg
  average Cmax: 3.09 ng/mL
[5]
  effect on spike (RBD) protein binding: dose-dependently inhibited spike protein binding
[5]; listed as Halofuginone
  effect on spike (RBD) protein binding: reduced spike RBD protein binding
Authentic SARS-CoV-2
  infectious SARS-CoV-2 in supernatants (plaque assay): No infectious SARS-CoV-2 could be detected; also recorded: No virus was detected
[6]
  expression of core HSPGs (mAb 3G10): reduced the expression of core HSPGs in a dose-dependent manner
Hepcidin expression
  hepcidin expression in the liver: reduces hepcidin expression in the mouse liver
ZIKV (Zika virus)
  EC50: 21.8 nM
clinical; 0.5 mg
  Cmax: ~1.3 nM
clinical; 3.5 mg
  Cmax: ~7.4 nM
